Laboratory results as given in patent publication US20160320368A1, “METHOD AND APPARATUS FOR PREDICTING EFFECTIVE DOSE OR SENSITIVITY OF 5-HYDROXY-1H-IMIDAZOLE-4-CARBOXAMIDE, METHOD FOR DETERMINING AMOUNT OF XANTHOSINE MONOPHOSPHATE, AND TREATMENT AGENT AND METHOD FOR TREATING MYELODYSPLASTIC SYNDROME” (FUJIFILM Corporation, priority 2014, published 2016).

Columns and labels:
[1] = tested on: human myeloid leukemia cell line SKM-1; experiment: Cell growth inhibitory activity (CellTiter-Glo, 72 hours); assay type: cell-based; conditions: SKM-1, 72 hours
Method: (§1) A ¾ hydrate of Compound A was used as a test compound.
SKM-1 (available from National Institute of Biomedical Innovation JCRB Cell Bank) was used as a human myeloid leukemia cell line.
90 μL (5000 cells) of the human myeloid leukemia cell line SKM-1 was seeded onto a 96-well plate. 10 μL of a PBS solution of the test compound (0 μmol/L, 1 μmol/L, 3 μmol/L, 10 μmol/L, 30 μmol/L, 100 μmol/L, 300 μmol/L, 1000 μmol/L, 3000 μmol/L, or 10000 μmol/L in terms of Compound A) was added to the plate which was then incubated in 5% CO2 at 37° C. for 72 hours. 100 μL of CellTiter-Glo (manufactured by Promega) was added to each well to prepare a cell lysate.
The relative value of chemiluminescence intensity was calculated by a plate reader.

XMP in blood cells = XMP in blood cells of mice after oral administration; assay type: in vivo, female mice (BALB/cAJcl); conditions: 100 mg/kg oral, non-treated = 100%
Method: as §1
(§2) 0.5% MC or 0.5% MC of the test compound (100 mg/kg in terms of Compound A) was orally administered to female mice (BALB/cAJcl).
Whole blood was collected from the postcava of animals under anesthesia by isoflurane inhalation at 1, 4, 8 or 24 hours post-dose, using a polypropylene syringe treated with an ethylenediaminetetraacetic acid disodium salt and a 25 gauge injection needle. BD Pharm Lyse (555899, manufactured by Becton, Dickinson and Company, Inc.) was added to the blood (2 mL of BD Pharm Lyse was added relative to 0.2 mL of blood). After stirring with a vortex mixer, the reaction solution was protected from light and allowed to stand at room temperature for 15 min. After centrifugation at 20° C. and 1000×g for 5 min, the supernatant was removed and suspended in 10 mL of a PBS solution. After centrifugation at 4° C. and 1000×g for 5 min, the supernatant was removed, and 1000 μL of methanol was added to each tube, followed by stirring. Thereafter, 500 μL of ultrapure water was added thereto, followed by further stirring. 600 μL of the reaction solution was divided into each of two tubes, and 400 μL of chloroform was added to each tube. The reaction solution was stirred and then centrifuged at 4° C. and 10000×g for 15 min. 400 μL of the aqueous phase was recovered and added to an ultrafiltration tube, followed by centrifugation at 12° C. and 9200×g for 2 hours. The filtrates were combined and then dried under reduced pressure at 40° C. for 2 hours by using a centrifugal evaporator. After drying, the resulting product was stored in a freezer at −80° C.
(§3) The samples obtained in (2-1) and (2-2) were returned to room temperature, and 40 μL of ultrapure water was added to the hemolysis sample and 150 μL of ultrapure water was added to the bone marrow sample. The mixture was stirred and then centrifuged at 4° C. and 21500×g for 5 min. For the hemolysis sample, 35 μL of the supernatant was transferred to a vial. For the bone marrow sample, 140 μL of the supernatant was transferred to a vial. After storage at 4° C., XMP in samples was determined in the LC-MS/MS determination instrument, LC conditions and MS/MS conditions described in Example 3 (3).
(§4) Amounts of XMP (%) were calculated assuming that amounts of XMP in a non-Compound A treated group are defined as 100%.

XMP in bone marrow cells = XMP in bone marrow cells of mice after oral administration; assay type: in vivo, female mice (BALB/cAJcl); conditions: 100 mg/kg oral, non-treated = 100%
Method: as §1, §2
Right and left femurs of animals were collected under anesthesia by isoflurane inhalation at 1, 4, 8 or 24 hours post-dose, followed by cutting bone ends and centrifuging at 4° C. and 3000 rpm for 1 min to recover bone marrow cells. The recovered bone marrow cells were suspended in 1 mL of PBS, and the number of cells was counted. After centrifugation at 4° C. and 1000×g for 5 min, the supernatant was removed, and 1000 μL of methanol was added to each tube, followed by stirring. Thereafter, 500 μL of ultrapure water was added thereto, followed by further stirring. 600 μL of the reaction solution was divided into each of two tubes, and 400 μL of chloroform was added to each tube. The reaction solution was stirred and then centrifuged at 4° C. and 10000×g for 15 min. 400 μL of the aqueous phase was recovered and added to an ultrafiltration tube, followed by centrifugation at 12° C. and 9200×g for 2 hours. The filtrates were combined and then dried under reduced pressure at 40° C. for 2 hours by using a centrifugal evaporator. After drying, the resulting product was stored in a freezer at −80° C.
as §3, §4

XMP in whole blood = XMP in whole blood (Example 8); assay type: cell-based, human; conditions: 37° C., 8 hours, non-treated = 100%
Method: as §1
450 μL of the blood collected from healthy individuals by heparinized blood collection was added to each tube, and 50 μL of a PBS solution of the test compound (0 μg/mL, 1 μg/mL, 10 μg/mL, or 100 μg/mL in terms of Compound A) for each concentration was added to each tube. The reaction mixture was stirred in an incubator at 37° C. for 8 hours.
400 μL of methanol was added to 100 μL of the blood sample obtained in (1). After stirring, 400 μL of chloroform was added, followed by further stirring. 120 μL of ultrapure water was added thereto, followed by stirring and then centrifugation at 4° C. and 10000×g for 15 min. 400 μL of the aqueous phase was recovered and added to an ultrafiltration tube, followed by centrifugation at 12° C. and 9200×g for 2 hours. The filtrate was dried under reduced pressure at 40° C. for 2 hours by using a centrifugal evaporator. After drying, the resulting product was stored in a freezer at −80° C.
The samples obtained in (2) were returned to room temperature and 40 μL of ultrapure water was added to each sample. The mixture was stirred and centrifuged at 4° C. and 21500×g for 5 min. 35 μL of the supernatant was transferred to a vial. After storage at 4° C., XMP, GMP and GTP in the samples were determined in the LC-MS/MS determination instrument and LC conditions described in Example 3 (3), and MS/MS conditions shown in Table 15.
Amounts of XMP, GMP and GTP (%) were calculated assuming that the XMP, GMP and GTP values of a non-Compound A treated group (peak area value) are defined as 100%.

Structure (SMILES): NC(=O)c1nc[nH]c1O [Compound A, 5-Hydroxy-1H-imidazole-4-carboxamide]
- IC50 [1]: 21.5 µM
- IC50 ([1]; in terms of Compound A): 2.73 µg/mL
- Amount of XMP (%) Blood cell (XMP in blood cells; 1 hr post-dose): 3.4%
- Amount of XMP (%) Blood cell (XMP in blood cells; 4 hr post-dose): 7.2%
- Amount of XMP (%) Blood cell (XMP in blood cells; 8 hr post-dose): 26.4%
- Amount of XMP (%) Blood cell (XMP in blood cells; 24 hr post-dose): 70.7%
- Amount of XMP (%) Bone marrow cell (XMP in bone marrow cells; 1 hr post-dose): 8.7%
- Amount of XMP (%) Bone marrow cell (XMP in bone marrow cells; 4 hr post-dose): 16.5%
- Amount of XMP (%) Bone marrow cell (XMP in bone marrow cells; 8 hr post-dose): 25.9%
- Amount of XMP (%) Bone marrow cell (XMP in bone marrow cells; 24 hr post-dose): 82.7%
- Amount of each compound in whole blood (%) XMP (XMP in whole blood; Compound A 1 μg/mL): 55%
- Amount of each compound in whole blood (%) XMP (XMP in whole blood; Compound A 10 μg/mL): 30%
- Amount of each compound in whole blood (%) XMP (XMP in whole blood; Compound A 100 μg/mL): 13%
